Assays:
[1] = molecular target: T1, Bruton tyrosine kinase (BTK) (Homo sapiens, UniProt Q06187); assay: Z'LYTE biochemical kinase inhibition assay, dose response
[2] = molecular target: T1, Bruton tyrosine kinase (BTK); assay: Z'LYTE biochemical kinase inhibition assay, single dose (% inhibition at […])

T1 sequence (Q06187 2-659): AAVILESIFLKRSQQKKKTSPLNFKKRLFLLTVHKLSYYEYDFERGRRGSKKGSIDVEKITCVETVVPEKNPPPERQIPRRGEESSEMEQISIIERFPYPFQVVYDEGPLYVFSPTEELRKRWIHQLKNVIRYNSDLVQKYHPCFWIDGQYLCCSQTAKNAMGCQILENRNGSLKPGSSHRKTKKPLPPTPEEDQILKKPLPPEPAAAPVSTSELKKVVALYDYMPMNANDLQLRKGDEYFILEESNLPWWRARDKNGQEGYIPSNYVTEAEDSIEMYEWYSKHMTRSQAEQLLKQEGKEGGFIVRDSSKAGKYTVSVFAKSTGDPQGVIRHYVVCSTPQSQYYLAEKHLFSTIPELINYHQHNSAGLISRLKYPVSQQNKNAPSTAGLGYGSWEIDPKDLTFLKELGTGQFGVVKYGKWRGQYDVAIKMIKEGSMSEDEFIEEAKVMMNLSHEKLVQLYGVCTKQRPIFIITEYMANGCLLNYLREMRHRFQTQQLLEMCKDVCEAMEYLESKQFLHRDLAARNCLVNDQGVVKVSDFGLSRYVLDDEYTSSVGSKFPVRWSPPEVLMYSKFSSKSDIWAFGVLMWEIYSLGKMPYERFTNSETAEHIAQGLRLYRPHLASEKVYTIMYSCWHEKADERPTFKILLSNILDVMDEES

SMILES	IC50 [1] [nM]	inhibition at 10 µM [2] [%]
N#CCc1n[nH]c2nc(SCc3ccccc3)nc(Nc3nnc(S)s3)c12 [NSC724520]	2100	–
COc1ccc(/C=N/Nc2nc(SCc3ccccc3)nc3[nH]ncc23)cc1OC [NSC726558]	–	59
O=C(Sc1nc(SC(=O)c2ccccc2)c2cn[nH]c2n1)c1ccccc1 [NSC722944]	1600	–

Now from value to compound, other results behind:

IC50 [1] [nM]	SMILES	inhibition at 10 µM [2] [%]
5000	C(=Nc1nc(NCc2ccccc2)nc2[nH]ncc12)c1cccs1 [NSC726593]	–
840	C(=Nc1nc(N2CCOCC2)nc2[nH]ncc12)c1ccco1 [NSC725686]	–

— article PMC8667945, “Structure-based virtual screening and biological evaluation of novel small-molecule BTK inhibitors” (Journal of Enzyme Inhibition and Medicinal Chemistry, 2021)
